The target in the experiment is Sodium channel protein type 9 subunit alpha (Homo sapiens, UniProt Q15858). The experiment in a line: In Vitro Electrophysiology: Electrophysiological studies are performed with an IonWorks Quattro (Molecular Devices Corp.) automated patch-clamp electrophysiology platform as described by (Schroeder K et al. Journal of Biomolecular Screening 2003, 8 (1), 50-64). Buffers for the experiments have the following composition (mM): Internal solution; K-gluconate 100, KCl 40, MgCl2 3.2, HEPES 5, EGTA 3, pH 7.3. To this amphotericin B is added to final concentration of 0.1 mg/ml to generate access solution. External solution; Dulbecco's Phosphate buffered saline (D-PBS) NaCl 137.93, KCl 2.67, KH2PO4 1.47, Na2HPO4 8.06, CaCl2 0.90, MgCl2 0.49. Prior to the experiment the cells expressing the voltage-gated ion channel of interest are detached from the tissue culture flasks, centrifuged and resuspended in D-PBS. Compounds are prepared and serially diluted in DMSO and finally diluted 1:100 in D-PBS. Cells are exposed to compounds through the pipetting system integrated into the platform and the voltage-gated ion channel of interest is activated with specific voltage stimulation protocols. The following voltage stimulation protocol is used for testing compounds against the voltage-gated sodium channel Nav1.7; from a holding potential of −100 mV a train of eight 60 ms depolarising steps to −20 mV at a frequency of 14 Hz are employed followed by a further step to −20 mV for 2000 ms. […]. (The patch-clamp technique gives a direct electrical read-out from membranes.)
Sodium channel protein type 9 subunit alpha, sequence (Q15858 whole entry): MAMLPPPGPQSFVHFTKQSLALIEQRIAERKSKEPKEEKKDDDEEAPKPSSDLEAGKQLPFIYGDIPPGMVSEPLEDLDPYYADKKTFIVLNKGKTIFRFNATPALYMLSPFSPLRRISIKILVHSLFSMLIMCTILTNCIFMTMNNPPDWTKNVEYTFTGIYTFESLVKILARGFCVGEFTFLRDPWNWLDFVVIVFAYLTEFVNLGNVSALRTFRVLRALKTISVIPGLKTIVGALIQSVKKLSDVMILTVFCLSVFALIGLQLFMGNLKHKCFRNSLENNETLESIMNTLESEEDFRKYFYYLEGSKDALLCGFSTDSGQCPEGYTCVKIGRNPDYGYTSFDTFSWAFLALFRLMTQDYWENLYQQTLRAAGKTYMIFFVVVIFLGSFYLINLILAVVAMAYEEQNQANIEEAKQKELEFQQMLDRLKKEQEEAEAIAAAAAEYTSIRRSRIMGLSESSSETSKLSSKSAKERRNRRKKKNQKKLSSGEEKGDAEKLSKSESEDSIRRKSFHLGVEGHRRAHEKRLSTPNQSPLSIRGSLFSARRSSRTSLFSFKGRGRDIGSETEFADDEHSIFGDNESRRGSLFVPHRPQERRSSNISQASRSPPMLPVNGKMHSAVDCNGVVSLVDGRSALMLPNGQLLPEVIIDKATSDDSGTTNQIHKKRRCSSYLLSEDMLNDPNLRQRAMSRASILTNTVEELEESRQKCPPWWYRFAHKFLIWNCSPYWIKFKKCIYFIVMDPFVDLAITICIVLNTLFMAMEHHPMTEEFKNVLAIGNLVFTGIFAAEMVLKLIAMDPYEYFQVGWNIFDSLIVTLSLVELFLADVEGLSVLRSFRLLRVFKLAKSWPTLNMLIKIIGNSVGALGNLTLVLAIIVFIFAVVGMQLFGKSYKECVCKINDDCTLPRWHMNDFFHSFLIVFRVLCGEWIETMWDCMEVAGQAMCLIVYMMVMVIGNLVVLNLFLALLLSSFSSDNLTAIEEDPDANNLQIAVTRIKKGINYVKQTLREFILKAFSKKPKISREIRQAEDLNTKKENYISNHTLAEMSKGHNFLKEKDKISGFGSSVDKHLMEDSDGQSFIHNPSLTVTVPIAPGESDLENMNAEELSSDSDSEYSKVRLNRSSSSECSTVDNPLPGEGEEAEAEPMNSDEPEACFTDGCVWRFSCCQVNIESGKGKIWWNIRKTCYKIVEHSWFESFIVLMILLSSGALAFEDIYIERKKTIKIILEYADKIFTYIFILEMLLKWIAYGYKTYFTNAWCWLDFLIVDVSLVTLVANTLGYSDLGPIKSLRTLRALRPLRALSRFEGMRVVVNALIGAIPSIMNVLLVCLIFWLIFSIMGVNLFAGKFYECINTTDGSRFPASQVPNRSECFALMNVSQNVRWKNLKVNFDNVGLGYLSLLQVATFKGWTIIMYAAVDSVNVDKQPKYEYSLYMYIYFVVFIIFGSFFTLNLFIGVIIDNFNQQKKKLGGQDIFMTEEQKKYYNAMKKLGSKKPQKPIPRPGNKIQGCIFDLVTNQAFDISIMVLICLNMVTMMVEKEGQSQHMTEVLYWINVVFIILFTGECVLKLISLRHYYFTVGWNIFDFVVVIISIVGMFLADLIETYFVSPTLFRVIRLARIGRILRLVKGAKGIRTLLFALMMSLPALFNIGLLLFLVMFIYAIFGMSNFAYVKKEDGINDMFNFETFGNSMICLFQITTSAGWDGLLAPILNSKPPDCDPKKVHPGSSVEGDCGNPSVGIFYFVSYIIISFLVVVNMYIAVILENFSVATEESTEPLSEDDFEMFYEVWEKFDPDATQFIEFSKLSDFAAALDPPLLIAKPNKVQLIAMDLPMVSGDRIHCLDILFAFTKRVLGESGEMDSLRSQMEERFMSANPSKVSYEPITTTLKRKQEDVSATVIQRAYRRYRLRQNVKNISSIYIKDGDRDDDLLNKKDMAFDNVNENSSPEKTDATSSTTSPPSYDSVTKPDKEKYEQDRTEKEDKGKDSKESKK

In general, IC50 refers to the concentration needed to halve the response being measured. For `COc1ccc(OCC(F)(F)C(F)(F)F)c(-c2ccc3c(N)nn(C)c3c2)c1`, the 50% inhibitory concentration (IC50) was determined as 1230 nM.
`COc1cccc(-c2ccc3c(N)nn(C)c3c2)c1OCC(F)F` showed an IC50 of 1070 nM.
